In US10160755B2 (Plexxikon Inc., priority 2015, dated 2018):

Legend:
FLT3-D835Y = molecular target: T1, FLT3-D835Y (Homo sapiens, UniProt P36888, D835Y); test: FLT3-D835Y biochemical kinase assay (AlphaScreen)
T1 construct: purchased Invitrogen PV3967
T1 sequence (P36888 27-993 D835Y): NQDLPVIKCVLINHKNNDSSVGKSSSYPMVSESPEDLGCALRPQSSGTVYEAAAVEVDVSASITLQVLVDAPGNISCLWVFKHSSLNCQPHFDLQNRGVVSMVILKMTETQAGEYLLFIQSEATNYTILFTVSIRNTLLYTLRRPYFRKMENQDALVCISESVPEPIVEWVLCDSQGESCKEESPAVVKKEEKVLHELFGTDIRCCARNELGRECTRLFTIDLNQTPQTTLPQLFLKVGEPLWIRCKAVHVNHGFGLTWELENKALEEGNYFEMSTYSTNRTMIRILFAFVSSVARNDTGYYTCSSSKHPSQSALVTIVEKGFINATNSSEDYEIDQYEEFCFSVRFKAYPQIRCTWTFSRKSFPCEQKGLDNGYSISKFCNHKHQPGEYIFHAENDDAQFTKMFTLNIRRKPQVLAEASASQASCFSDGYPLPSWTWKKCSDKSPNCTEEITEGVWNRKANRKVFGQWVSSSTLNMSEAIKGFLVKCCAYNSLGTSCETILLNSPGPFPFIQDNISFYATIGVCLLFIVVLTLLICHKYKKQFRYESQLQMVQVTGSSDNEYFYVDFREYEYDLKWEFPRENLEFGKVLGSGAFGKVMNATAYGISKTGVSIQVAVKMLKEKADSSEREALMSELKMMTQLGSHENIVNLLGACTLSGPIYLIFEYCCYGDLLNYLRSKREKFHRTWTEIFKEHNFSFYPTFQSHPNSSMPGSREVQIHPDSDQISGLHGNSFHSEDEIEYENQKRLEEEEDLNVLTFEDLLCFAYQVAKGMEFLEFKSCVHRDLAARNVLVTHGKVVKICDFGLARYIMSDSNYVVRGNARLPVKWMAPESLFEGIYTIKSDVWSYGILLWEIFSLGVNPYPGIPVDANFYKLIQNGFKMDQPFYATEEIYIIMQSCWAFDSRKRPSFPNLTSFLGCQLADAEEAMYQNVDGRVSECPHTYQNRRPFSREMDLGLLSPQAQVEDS
Procedure, shortened: (§1)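 Compounds were tested against recombinant enzyme using AlphaScreen detection of tyrosine-phosphorylated biotin-poly(Glu4-Tyr) (30 nM final). The ATP concentration differed by construct: 10 μM for D835Y, 100 μM for ITD.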

FLT3-ITD = molecular target: T2, FLT3-ITD (Homo sapiens, UniProt P36888); test: FLT3-ITD biochemical kinase assay (AlphaScreen)
T2 construct: FLT3-ITD; Invitrogen #PV6190
T2 sequence (P36888 1-993): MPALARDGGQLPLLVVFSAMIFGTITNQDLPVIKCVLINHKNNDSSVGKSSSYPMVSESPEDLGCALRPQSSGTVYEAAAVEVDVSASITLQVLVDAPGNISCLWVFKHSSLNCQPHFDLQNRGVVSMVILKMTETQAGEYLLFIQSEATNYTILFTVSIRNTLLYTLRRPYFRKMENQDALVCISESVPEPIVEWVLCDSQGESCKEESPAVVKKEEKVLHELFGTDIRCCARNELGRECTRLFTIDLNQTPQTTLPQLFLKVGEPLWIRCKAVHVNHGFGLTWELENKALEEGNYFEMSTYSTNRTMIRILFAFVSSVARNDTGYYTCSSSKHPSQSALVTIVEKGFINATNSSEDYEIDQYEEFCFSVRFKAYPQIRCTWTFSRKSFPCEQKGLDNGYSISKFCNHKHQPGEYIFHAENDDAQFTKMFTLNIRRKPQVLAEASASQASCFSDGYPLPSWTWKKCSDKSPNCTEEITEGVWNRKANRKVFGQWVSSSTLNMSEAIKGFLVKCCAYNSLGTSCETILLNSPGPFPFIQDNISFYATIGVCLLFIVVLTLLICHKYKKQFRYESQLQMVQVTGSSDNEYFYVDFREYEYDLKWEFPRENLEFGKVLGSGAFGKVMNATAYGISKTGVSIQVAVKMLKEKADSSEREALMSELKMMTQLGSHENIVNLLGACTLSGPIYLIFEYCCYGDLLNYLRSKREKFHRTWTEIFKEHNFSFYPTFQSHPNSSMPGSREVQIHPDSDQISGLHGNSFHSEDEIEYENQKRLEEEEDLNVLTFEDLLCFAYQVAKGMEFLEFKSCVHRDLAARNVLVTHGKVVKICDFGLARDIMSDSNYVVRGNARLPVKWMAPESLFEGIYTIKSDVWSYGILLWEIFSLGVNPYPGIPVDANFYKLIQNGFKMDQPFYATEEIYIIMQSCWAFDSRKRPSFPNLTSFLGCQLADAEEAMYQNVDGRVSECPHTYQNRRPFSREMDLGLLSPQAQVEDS
Procedure, shortened: as §1

Compound | IC50 (FLT3-D835Y) [µM] | IC50 (FLT3-ITD) [µM]
c1cc(N2CCOCC2)ncc1-c1cnc2[nH]cc(-c3ccc4ncn(C5CCCNC5)c4c3)c2c1 (stereo not drawn) [P-321, 4-[5-[3-[3-(3-piperidyl)benzimidazol-5-yl]-1H-pyrrolo[2,3-b]pyridin-5-yl]-2-pyridyl]morpholine] | 0.0001 to 1 | 0.0001 to 1
COc1cc(-c2cnc3[nH]cc(-c4ccc5ncn(C6(C(F)(F)F)CC6)c5c4)c3n2)ccn1 [P-312, 2-(2-methoxy-4-pyridyl)-7-[3-[1-(trifluoromethyl)cyclopropyl]benzimidazol-5-yl]-5H-pyrrolo[2,3-b]pyrazine] | 0.0001 to 1 | 0.0001 to 1
Cc1ncc(C#Cc2cnc3[nH]cc(-c4ccc5ncn(C6CCCNC6)c5c4)c3n2)cn1 (stereo not drawn) [P-285, 2-[2-(2-methylpyrimidin-5-yl)ethynyl]-7-[3-(3-piperidyl)benzimidazol-5-yl]-5H-pyrrolo[2,3-b]pyrazine] | 0.0001 to 1 | 0.0001 to 1
FC(F)(F)Cn1cc(-c2cnc3[nH]cc(-c4ccc5ncn(C6CCCNC6)c5c4)c3c2)cn1 (stereo not drawn) [P-275, 1-(3-piperidyl)-6-[5-[1-(2,2,2-trifluoroethyl)pyrazol-4-yl]-1H-pyrrolo[2,3-b]pyridin-3-yl]benzimidazole] | 0.0001 to 1 | 0.0001 to 1

Next, values leading:

IC50 (FLT3-D835Y) [µM] | IC50 (FLT3-ITD) [µM] | Compound
0.0001 to 1 | 0.0001 to 1 | CCN1CCN(c2ccc(-c3cnc4[nH]cc(-c5ccc6ncn(C(C)(C)C)c6c5)c4n3)cc2)CC1 [P-358, 7-(3-tert-butylbenzimidazol-5-yl)-2-[4-(4-ethylpiperazin-1-yl)phenyl]-5H-pyrrolo[2,3-b]pyrazine]
0.0001 to 1 | 0.0001 to 1 | CC(C)(C)n1cnc2ccc(-c3c[nH]c4ncc(-c5ccc(C#N)nc5)cc34)cc21 [P-290, 5-[3-(3-tert-butylbenzimidazol-5-yl)-1H-pyrrolo[2,3-b]pyridin-5-yl]pyridine-2-carbonitrile]
0.0001 to 1 | 0.0001 to 1 | COc1cnc2[nH]cc(-c3ccc4ncn(C5CCCNC5)c4c3)c2c1 (stereo not drawn) [P-079, 5-methoxy-3-[3-(3-piperidyl)benzimidazol-5-yl]-1H-pyrrolo[2,3-b]pyridine]
0.0001 to 1 | 0.0001 to 1 | COc1cc(-c2cnc3[nH]cc(-c4ccc5ncn(C6CCCN(S(C)(=O)=O)C6)c5c4)c3n2)ccn1 (stereo not drawn) [P-281, 2-(2-methoxy-4-pyridyl)-7-[3-(1-methylsulfonyl-3-piperidyl)benzimidazol-5-yl]-5H-pyrrolo[2,3-b]pyrazine]
0.0001 to 1 | 0.0001 to 1 | Cn1cnc2ccc(-c3c[nH]c4nnc(Cl)cc34)cc21 [P-313, 3-chloro-5-(3-methylbenzimidazol-5-yl)-7H-pyrrolo[2,3-c]pyridazine]
